Measurements as given in US6410545B1, “Lipid lowering quinazoline dietary supplement composition” (Parker Hughes Institute, priority 1998, dated 2002).

Experiments:
[1] = test system: hypercholesterolemic C57B⅙ mice; test: Serum total cholesterol in hypercholesterolemic C57B⅙ mice on Paigen's cocoa butter diet; type: in vivo; conditions: apo e+/+ C57B1/6 mice, cocoa butter diet two weeks, then drug 1 week at 1.6 mg/kg/day i.p.
Description: Three- to four-week old C57B⅙ male mice (Taconic, Germantown, N.Y., USA) were kept in micro-isolator cages on a 12-hour day/night cycle and fed the Paigen's cocoa butter diet (15.8% fat, 1.25% cholesterol, and 0.5% sodium cholate) (Harlan Teklad, Madison, Wis., USA) for two weeks prior to initiation of lipid lowering therapy. Paigen's diet is described in Nishina et.al., 1993, J. Lipid Res. 34: 1413-1422.
(§1) Animals were treated with test compounds by intraperitoneal injection daily for 7 days. A range of doses was administered. Control animals received vehicle alone. The effect of quinazoline derivatives on total cholesterol, LDL, HDL, liver enzymes, and glucose was analyzed. The mice tissues were also examined histologically.
(§2) Serum total cholesterol was measured enzymatically using the cholesterol kit from Sigma Chemical Co. (St. Louis, Mo., USA). For liver tissue lipid measurements, lipids were extracted from homogenized hepatic tissues using the method of Bligh and Dyer (Bligh, et al., Can. J. Biochem. Phys. 1959, 37:911-917). One gram of liver tissue was homogenized in 1 ml of distilled water and extracted with 4 ml of chloroform/methanol (1:1, v/v). The chloroform phase containing the lipids was evaporated under a stream of nitrogen, the lipids dissolved in 100 μL of isopropanol, and subjected to cholesterol determination as described above. Triglyceride (TG) contents were determined using the TG kit from Sigma Chemical Co.
A high cholesterol and high fat diet was used to induce hypercholesterolemia in C57B⅙mice, using the methods described by Paigen, et al. (Nishina, et al., 1993, J. Lipid Res. 34:1413-1422) and as described for Example 1.

apo e−/− mice = test: Serum total cholesterol in apolipoprotein E deficient mice; type: in vivo; conditions: apo e−/− (C57B1/6) mice, Western diet two weeks, then drug 1 week at 40 mg/kg/day
Description: Three- to four-week old apolipoprotein E deficient (apo E^−/−) mice were the progeny of breeding pairs of apo E knockout (apo EKO) mice obtained from Jackson Labs. (Bar Harbor, Me., USA). Mice were fed either regular rodent chow (5% fat and 0% cholesterol) (Teklad-LM 485, Harlan Teklad, Madison, Wis., USA), the Paigen's cocoa butter diet, or the Western diet (21.22% fat and 0.2% cholesterol) (Harlan Teklad, Madison, Wis., USA) for two weeks prior to treatment.
as §1, §2
On regular rodent chow, the serum total cholesterol level of apo e^−/− mice was 836±57 mg/dL (n=47). After one week therapy with 8 mg/kg/day WHI-P164 (n=12), the mean serum total cholesterol level was reduced to 551±29 mg/dL (p=0.02).
When challenged with a cholesterol-rich diet, these animals developed frank hypercholesterolemia due to delayed clearance of intestinal chylomicrons which shuttle the dietary cholesterol from the intestine to the liver. In the present study, all of the 46 ApoE-deficient mice that were fed Western diet (14) became severely hypercholesterolemic with a mean serum total cholesterol level of 1491±59 mg/dL. One week WHI-P164 therapy reduced the mean serum total cholesterol level of hypercholesterolemic apo e^−/− mice to 1194±84 mg/dL (p=O.006) at a dose level of 8 mg/kg/day (n=19) and to 876±57 mg/dL (p<0.0001) at a dose level of 40 mg/kg/day (n=17) (Table 3).

COc1cc2ncnc(Nc3cc(Br)c(O)c(Br)c3)c2cc1OC [WHI-P97, 4-(3′,5′-Dibromo-4′-hydroxylphenyl)-amino-6,7-dimethoxyquinazoline] was tested, and the Serum total cholesterol [1] was 413 ± 18 mg/dL and the Serum total cholesterol (apo e−/− mice) was 1129 ± 46 mg/dL.

COc1cc2ncnc(Nc3ccc(C)c(Br)c3)c2cc1OC [WHI-P111, 4-(3′-Bromo-4′-methylphenyl)-amino-6,7-dimethoxyquinazoline] showed a Serum total cholesterol [1] of 406 ± 11 mg/dL and a Serum total cholesterol (apo e−/− mice) of 1425 ± 92 mg/dL.

Compound COc1cc2ncnc(Nc3ccc(O)cc3)c2cc1OC [WHI-P131, 4-(4′-Hydroxylphenyl)-amino-6,7-dimethoxyquinazoline] has a Serum total cholesterol [1] of 433 ± 20 mg/dL and a Serum total cholesterol (apo e−/− mice) of 1532 ± 77 mg/dL.

COc1cc2ncnc(Nc3ccccc3O)c2cc1OC [WHI-P132, 4-(2′-Hydroxylphenyl)-amino-6,7-dimethoxyquinazoline] showed a Serum total cholesterol (apo e−/− mice) of 1774 ± 61 mg/dL.

COc1cc2ncnc(Nc3ccc(O)c(Br)c3)c2cc1OC [WHI-P154, 4-(3′-Bromo-4′-hydroxylphenyl)-amino-6,7-dimethoxyquinazoline] showed a Serum total cholesterol (apo e−/− mice) of 1492 ± 110 mg/dL.

COc1cc2ncnc(Nc3ccc(O)c(Cl)c3)c2cc1OC [WHI-P197, 4-(3′-Chloro-4′-hydroxylphenyl)-amino-6,7-dimethoxyquinazoline] showed a Serum total cholesterol [1] of 372 ± 20 mg/dL and a Serum total cholesterol (apo e−/− mice) of 1621 ± 146 mg/dL.
